# Molecular target: T1, KCNQ2/3 ion channel (KCNQ2/3-expressing CHO-K1 cells) (Homo sapiens, UniProt O43525+O43526)
# T1 construct: expressed in transfected cells; host or cells: CHO-K1
# Experiment: Fluorescence assay (FLIPR instrument, membrane potential dye) for substances acting agonistically on the KCNQ2/3 ion channel
# Assay type: cell-based
# Details: difference between maximum and minimum values, agonistic action detected from a value of −40 (and below)
# Experimental: Pharmacological Test Methods I. Fluorescence Assay (FLIPR™ Instrument) for the Identification of Substances Acting Agonistically on the KCNQ2/3 Ion Channel
# On the day before the experiment, KCNQ2/3-expressing CHO-K1 cells and CHO-K1 empty strain cells were seeded out onto coated poly-D-lysine black/clear plates (Falcon/BD Company; Order No.: 356640) in a concentration of 20000 cells/100 μl MEM alpha, 50 ml FCS, 5.5 ml PIS/G/solution (100×) and then incubated for 20-24 hours in an incubator (37° C., 5% CO2). On the day of the experiment the HBSS/hepes working solution and the FMP/HBSS/hepes mixture (Membrane Potential Assay Kit Red (FMP), bulk format Cat. No. R8123) were initially prepared according to the following protocol:
# • 1000 ml 1× HBSS buffer (Hank's Balanced Salt Solution (1×) (Gibco; No. 14025)+10 ml hepes (1M stock solution, pH 7.4; hepes Na salt (Sigma Company; No. H7006-500 g; storage at 4° C. in a refrigerator) 2. 1× FMP/HBSS/hepes working solution: • 6 ml HBSS/hepes buffer are added to 5 ml of the FMP solution stored at −20° C. (preparation see below; thawing out at room temperature). The test substances (2 mM batch solution in 100% DMSO) contained in drug plates (Costar 96-well plates, catalogue No. 3795) were then diluted by adding HBSS/hepes buffer to a concentration of 30 μM (3× concentrated). The assay plates on which the cells grow were washed once with 200 μl HBSS/hepes (Cellwash Washer, Labsystems Company, catalogue No. 5161550) and the remaining volume was removed by tapping out the inverted plate twice. 100 μl of the FMP/HBSS/hepes working solution were then added in each case to the cell plates and incubated for 1 hour in the CO2 incubator at 37° C. and 5% CO2. The measurements are then carried out with a FLIPR III instrument from the Molecular Devices company (96-format, using the 540-590 nm band-pass filter in the #2 localization). In the experimental setup of the FLIPR software, filter #2 should be selected. The cell plates and the substance plates were fed alternately into the input stack. A signal test was carried out in each case with the cell plates before adding the substance. The test substances were then added via the pipetting unit of the FLIPR (added volume 50 μl, 3× concentrated, end concentration 10 μM) to the cavities of the cell plates in a total volume of 150 μl/well. The threshold data of the FLIPR program were as follows:
# The pipette tips were washed after each pipetting procedure 3 times with 1% DMSO in water. The times of the measurement intervals after addition of the test substances are as follows:
# Total measurement time: 6 min/plate
# The test samples were evaluated by calculating the difference between the maximum and minimum values. EC50/IC50 values are calculated using the Graph Pad Prism software.
# Preparation of the membrane potential loading buffer (membrane potential assay kit red (FMP), bulk format cat. No. R8123) according to the manufacturer's instructions:
# 10 ml of the 10× assay buffer (component B) were diluted with 90 ml of sterile water and then adjusted to pH 7.4 with 1.0N NaOH (1× assay buffer). One vessel with the FLIPR membrane potential assay component A was completely dissolved in 100 ml 1× assay buffer and thoroughly mixed for 10 minutes with a magnetic stirrer. 5 ml aliquots were then stored at −20° C. (storage shelf life ca. 2 weeks).
# An agonistic action can be detected starting from a value of −40 (and below).
row,"FLIPR membrane potential fluorescence change (ΔF %, max minus min); negative values indicate KCNQ2/3 agonism [%]",Structure (SMILES)
1,−64,"Cc1ccc2onc(NC(=S)Nc3ccccc3C(C)C)c2c1 [Example 95, 1-(2-isopropylphenyl)-3-(5-methyl-benzo[d]isoxazol-3-yl)-thiourea]"
2,−58,"S=C(Nc1noc2cc(Cl)ccc12)NC1CCCC1 [Example 103, 1-(6-chlorobenzo[d]isoxazol-3-yl)-3-cyclopentyl-thiourea]"
3,−47,"COC(=O)CNC(=S)Nc1noc2ccc(C)cc12 [Example 94, [3-(5-methylbenzo[d]isoxazol-3-yl)-thioureido]-acetic acid methyl ester]"
4,−64,"CC(C)CNC(=S)Nc1noc2cccc(N(C)C)c12 [Example 54, 1-(4-dimethylamino-benzo[d]isoxazol-3-yl)-3-isobutyl-thiourea]"
5,−55,"C=CCNC(=S)Nc1noc2c(F)cccc12 [Example 123, 1-allyl-3-(7-fluorobenzo[d]-isoxazol-3-yl)-thiourea]"
6,−42,"COc1cccc2onc(NC(=S)NCc3ccc(Cl)cc3)c12 [Example 129, 1-(4-chlorobenzyl)-3-(4-methoxy-benzo[d)isoxazol-3-yl)-thiourea]"
7,−54,"CC(C)c1cccc(C(C)C)c1NC(=S)Nc1noc2cc(F)ccc12 [Example 114, 1-(2,6-diisopropylphenyl)-3-(6-fluorobenzo[d]isoxazol-3-yl)-thiourea]"
8,−49,"Fc1cccc2c(NCc3cccc(OC(F)(F)F)c3)noc12 [Example 203, (7-fluorobenzo[d]isoxazol-3-yl)-(3-trifluoromethoxy-benzyl)-amine]"
9,−47,"COc1cccc2onc(NC(=S)NC(C)c3ccccc3)c12 (centres unmarked) [Example 128, 1-(4-methoxybenzo[d]isoxazol-3-yl)-3-(1-phenylethyl)-thiourea]"
10,−43.5,"Fc1ccc2onc(NC(=S)NCC3CCCO3)c2c1 (centres unmarked) [Example 98, 1-(5-fluorobenzo[d]isoxazol-3-yl)-3-(tetrahydrofuran-2-yl-methyl)-thiourea]"
11,−58.5,"COC(=O)C(C)NC(=S)Nc1noc2ccc(F)cc12 (centres unmarked) [Example 97, 2-[3-(5-fluorobenzo(d]isoxazol-3-yl)-thioureido]-propionic acid methyl ester]"
12,−53,"FC(F)(F)Oc1ccc(CNc2noc3ccccc23)cc1 [Example 158, benzo[d]isoxazol-3-yl-(4-trifluoromethoxybenzyl)-amine]"
13,−57,"Cc1ccc2onc(NC(=S)Nc3ccc(C(F)(F)F)cc3)c2c1 [Example 96, 1-(5-methylbenzo[d]isoxazol-3-yl)-3-(4-trifluoromethylphenyl)-thiourea]"
14,−42,"CCc1ccccc1NC(=S)Nc1noc2ccc(Br)cc12 [Example 100, 1-(5-bromobenzo[d]isoxazol-3-yl)-3-(2-ethylphenyl)-thiourea]"
15,−67.5,"S=C(NCc1ccccc1)Nc1noc2cccc(Cl)c12 [Example 52, 1-benzyl-3-(4-chloro-benzo[d]isoxazol-3-yl)-thiourea]"
16,−45.5,"C=CCNC(=S)Nc1noc2ccc(C)cc12 [Example 93, 1-allyl-3-(5-methylbenzo[d]isoxazol-3-yl)-thiourea]"
17,−40,"S=C(Nc1noc2ccccc12)NC1CCCCC1 [Example 23, 1-benzo[d]isoxazol-3-yl-3-cyclohexyl-thiourea]"
18,−50,"Cc1ccccc1NC(=S)Nc1noc2cccc(Cl)c12 [Example 51, 1-(4-chlorobenzo[d]isoxazol-3-yl)-3-o-tolyl-thiourea]"
19,−41.5,"Cc1ccc(COc2cccc3onc(NC(=S)NC4CCCCC4)c23)cc1 [Example 90, 1-cyclohexyl-3-[4-(4-methylbenzyloxy)-benzo[d]isoxazol-3-yl]-thiourea]"
20,−42.5,"CC(NC(=S)Nc1noc2cccc(Cl)c12)c1ccccc1 (centres unmarked) [Example 53, 1-(4-chlorobenzo[d]isoxazol-3-yl)-3-(1-phenyl-ethyl)-thiourea]"
21,−50,"Cc1ccc(NC(=S)Nc2noc3c(F)cccc23)cc1 [Example 124, 1-(7-fluorobenzo[d]isoxazol-3-yl)-3-p-tolyl-thiourea]"
22,−59,"COc1ccc(NC(=S)Nc2noc3cc(Cl)ccc23)cc1 [Example 106, 1-(6-chlorobenzo[d]isoxazol-3-yl)-3-(4-methoxyphenyl)-thiourea]"
23,−68,"Fc1ccc2c(NCc3ccc(SC(F)(F)F)cc3)noc2c1 [Example 172, (6-fluorobenzo[d]isoxazol-3-yl)-(4-trifluoromethyl-sulfanyl-benzyl)-amine]"
24,−49,"CCOc1ccc(NC(=S)Nc2noc3ccccc23)cc1 [Example 31, 1-benzo[d]isoxazol-3-yl-3-(4-ethoxyphenyl)-thiourea]"
25,−47.5,"COc1cc(NC(=S)Nc2noc3cccc(OCC(F)(F)F)c23)cc(OC)c1OC [Example 135, 1-[4-(2,2,2-trifluoroethoxy)-benzo[d]isoxazol-3-yl]-3-(3,4,5-trimethoxyphenyl)-thiourea]"
26,−52,"CN(C)c1cccc2onc(NC(=S)NCc3ccccc3)c12 [Example 64, 1-benzyl-3-(4-dimethylamino-benzo[d]isoxazol-3-yl)-thiourea]"
27,−74,"Fc1c(Cl)cccc1CNc1noc2cccc(Cl)c12 [Example 200, (4-chlorobenzo[d]isoxazol-3-yl)-(3-chloro-2-fluoro-benzyl)-amine]"
28,−45,"COc1ccc(Cl)cc1NC(=S)Nc1noc2cccc(OC)c12 [Example 132, 1-(5-chloro-2-methoxyphenyl)-3-(4-methoxybenzo[d]isoxazol-3-yl)-thiourea]"
29,−55,"CN(C)c1cccc2onc(NC(=S)Nc3cccc(Cl)c3)c12 [Example 56, 1-(3-chlorophenyl)-3-(4-dimethylaminobenzo[d]isoxazol-3-yl)-thiourea]"
30,−66.5,"CCCCCCCCCNC(=S)Nc1noc2cccc(OCc3ccc(C)cc3)c12 [Example 87, 1-[4-(4-methylbenzyloxy)-benzo[d]isoxazol-3-yl]-3-nonyl-thiourea]"

row,Structure (SMILES),"FLIPR membrane potential fluorescence change (ΔF %, max minus min); negative values indicate KCNQ2/3 agonism [%]"
1,"Cc1ccc(NC(=S)Nc2noc3cccc(N(C)C)c23)cc1 [Example 55, 1-(4-dimethylamino-benzo[d]-isoxazol-yl)-3-p-tolyl-thiourea]",−84
2,"COc1ccc(NC(=S)Nc2noc3cc(Br)ccc23)cc1OC [Example 108, 1-(6-bromobenzo[d]isoxazol-3-yl)-3-(3.4-dimethoxyphenyl)-thiourea]",−53.5

# — patent publication US7696238B2, “Substituted benzo[d]isoxazol-3-yl amine compounds as analgesics” (Gruenenthal GmbH, priority 2005, dated 2010)
